{"source": "patent US7250442B2", "about": "“Dihydroindol-2-one derivatives as steroid hormone nuclear receptor modulators” (Eli Lilly and Company, priority 2003, dated 2007)", "key": {"human MR": {"biological_target": "T1, human MR (Homo sapiens, UniProt P08235)", "T1 construct": "The full length human MR gene is cloned from a human kidney or human brain cDNA library; made in house; host or cells: Sf9 insect cells (baculovirus, pAcHLT transfer vector)", "T1 sequence (P08235 1-984)": "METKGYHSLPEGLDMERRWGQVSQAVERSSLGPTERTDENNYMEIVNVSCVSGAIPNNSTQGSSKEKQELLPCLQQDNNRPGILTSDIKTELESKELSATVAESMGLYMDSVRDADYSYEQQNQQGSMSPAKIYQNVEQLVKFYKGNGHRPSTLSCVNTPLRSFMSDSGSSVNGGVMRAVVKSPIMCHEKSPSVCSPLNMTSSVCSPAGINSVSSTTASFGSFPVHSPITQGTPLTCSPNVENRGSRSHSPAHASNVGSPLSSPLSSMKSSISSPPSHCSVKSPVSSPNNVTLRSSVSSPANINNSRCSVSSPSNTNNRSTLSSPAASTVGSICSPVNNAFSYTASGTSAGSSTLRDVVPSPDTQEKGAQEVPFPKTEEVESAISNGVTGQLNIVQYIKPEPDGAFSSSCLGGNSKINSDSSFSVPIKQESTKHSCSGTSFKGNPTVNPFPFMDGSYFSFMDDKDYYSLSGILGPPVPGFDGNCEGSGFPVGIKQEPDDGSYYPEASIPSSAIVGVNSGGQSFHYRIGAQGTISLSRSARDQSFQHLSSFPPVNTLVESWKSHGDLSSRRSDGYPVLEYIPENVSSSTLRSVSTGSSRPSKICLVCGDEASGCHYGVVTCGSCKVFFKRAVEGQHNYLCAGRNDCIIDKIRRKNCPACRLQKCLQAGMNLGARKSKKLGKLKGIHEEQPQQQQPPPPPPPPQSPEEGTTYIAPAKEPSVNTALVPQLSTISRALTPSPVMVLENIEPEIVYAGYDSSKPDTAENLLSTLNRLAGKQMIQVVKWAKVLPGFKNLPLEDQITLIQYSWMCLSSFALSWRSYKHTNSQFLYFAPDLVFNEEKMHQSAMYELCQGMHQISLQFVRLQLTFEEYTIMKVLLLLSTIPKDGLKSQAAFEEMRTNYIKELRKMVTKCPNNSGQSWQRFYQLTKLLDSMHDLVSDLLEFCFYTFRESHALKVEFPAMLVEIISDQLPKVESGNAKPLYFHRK", "assay": "Mineralocorticoid Receptor Binding Assay ([3H]-aldosterone displacement)", "settings": "full length human MR expressed in Sf9 cells, 0.5 nM [3H]-aldosterone", "method": "Mineralocorticoid Receptor Binding Assay:\nThe full length human MR gene is cloned from a human kidney or human brain cDNA library. Briefly, using synthetic oligonucleotide primers (Eli Lilly and Company, Indianapolis) directed to nucleotides 20-54 and 3700-3666 of the human MR, polymerase chain reaction (PCR) is performed under standard conditions using a human cDNA library. The PCR reaction is performed in a final volume of 50 μl containing about 1 μl of a 50× stock solution of polymerase; about 1 μl of a 50× stock solution of dNTP; about 5 μl of an appropriate PCR buffer; about 1 μl of each primer; about 5 μl of a H. kidney or H. brain cDNA library; and about 36 μl of water. The reaction is allowed to denature for about 30 seconds at 95 degrees Celsius, anneal for about 30 seconds at 55 degrees Celsius, and extend for about 5 minutes at 72 degrees Celsius, the sequence being repeated for a total of about 35 cycles. The desired PCR product (3.68 Kb) is confirmed by gel electrophoresis and subsequently cut from the gel and stored at about −20 degrees Celsius until extraction. To extract the cDNA product from the agarose gel, the QIAEX II Gel Extraction protocol (QIAGEN, Inc.) is employed according to the manufacturer's instructions. Following extraction, the MR cDNA is cloned into an appropriate cloning vector (Zero Blunt TOPO PCR Cloning Kit (Invitrogen, Inc.) and a pAcHLT-baculovirus transfer vector (B.D./Pharminogen), then expressed in SF9 insect cells, essentially according to manufacturer's instructions. Sf9 cells are grown at a scale where gram quantity cell pellets are obtained for subsequent use in the MR binding assay. Harvested cell pellets are lysed by repeated freeze-thaw cycles (about 4) in a suitable lysis buffer then centrifuged at about 1×10^3 G (with the supernatant being saved for future assays).\nMR binding assays are performed in a final total volume of about 250 μl containing about 20-25 μg of protein and 0.5 nM of [^3H]-aldosterone plus varying concentrations of test compound or vehicle. The assay binding buffer consists of 30 mM sodium molybdate, 30 mM of TRIS-HCl, 5 mM sodium phosphate, 5 mM sodium pyrophosphate, and about 10% glycerol, pH=7.5.\nBriefly, assays are prepared at RT in 96-well Falcon 3072 plates, each well containing 210 μl of binding buffer, 10 μl of [^3H]-aldosterone, 10 μl of test compound/vehicle, and 20 μl of the resuspended receptor protein extract. Incubations are carried out at 4 degrees Celsius with shaking for about 16 hours. 200 μl aliquots of each incubation are filtered onto Millipore HA 0.45 micron 96-well filter plates, pre-moistened with cold 30 mM TRIS-HCl. The filter plates are suctioned dry with vacuum and immediately washed 3× with cold 30 mM TRIS-HCl. The plates are then punched out and the amount of receptor-ligand complex is determined by liquid scintillation counting using 4 ml of Ready Protein Plus™ liquid scintillation cocktail.\nIC50 values (defined as the concentration of test compound required to decrease [^3H]-aldosterone binding by 50%) are then determined. Ki values for each respective test compound can then be calculated by application of the Cheng-Prusoff equation as described in Cheng et al., Relationship Between The Inhibition Constant (Ki) and The Concentration of Inhibitor Which Causes 50% Inhibition (IC50) of an Enzymatic Reaction, Biochem. Pharmacol., 22: 3099-31088; (1973)."}, "[1]": {"settings": "in combination with standard CHF therapy, patients suffering from advanced CHF; cited from earlier work"}}, "note": "pKi: −log10 of the molar value.", "data": [{"smiles": "Cc1cc(C2(c3cc(C)c(O)c(C)c3)C(=O)N(Cc3ccc4ccccc4c3)c3ccccc32)cc(C)c1O", "note": "[Example 59, 3,3-Bis-(4-hydroxy-3,5-dimethyl-phenyl)-1-naphthalen-2-ylmethyl-1,3-dihydro-indol-2-one]", "values": [{"measurement": "pKi", "setting": "human MR", "result": "≥ 6.30"}]}, {"smiles": "Cc1cc(C2(c3cc(C)c(O)c(C)c3)C(=O)N(Cc3ccc(C(=O)c4ccccc4)cc3)c3ccccc32)cc(C)c1O", "note": "[Example 71, 1-(4-Benzoyl-benzyl)-3,3-bis-(4-hydroxy-3,5-dimethyl-phenyl)-1,3-dihydro-indol-2-one]", "values": [{"measurement": "pKi", "setting": "human MR", "result": "≥ 6.30"}]}, {"smiles": "Cc1cc(C2(c3cc(C)c(O)c(C)c3)C(=O)N(CC(=O)NC3CCCCC3)c3ccccc32)cc(C)c1O", "note": "[Example 96, 2-[3,3-Bis-(4-hydroxy-3,5-dimethyl-phenyl)-2-oxo-2,3-dihydro-indol-1-yl]-N-cyclohexyl-acetamide]", "values": [{"measurement": "pKi", "setting": "human MR", "result": "≥ 6.30"}]}, {"smiles": "Cc1cc(C2(c3cc(C)c(O)c(C)c3)C(=O)N(Cc3cccnc3)c3ccccc32)cc(C)c1O", "note": "[Example 103, 3,3-Bis-(4-hydroxy-3,5-dimethyl-phenyl)-1-pyridin-3-ylmethyl-1,3-dihydro-indol-2-one]", "values": [{"measurement": "pKi", "setting": "human MR", "result": "≥ 6.30"}]}, {"smiles": "C=CCN1C(=O)C(c2cc(C)c(O)c(C)c2)(c2cc(C)c(O)c(C)c2)c2ccccc21", "note": "[Example 104, 1-Allyl-3,3-bis-(4-hydroxy-3,5-dimethyl-phenyl)-1,3-dihydro-indol-2-one]", "values": [{"measurement": "pKi", "setting": "human MR", "result": "≥ 6.30"}]}, {"smiles": "Cc1cc(C2(c3cc(C)c(O)c(C)c3)C(=O)N(CCc3ccccn3)c3ccccc32)cc(C)c1O", "note": "[Example 122, 3,3-Bis-(4-hydroxy-3,5-dimethyl-phenyl)-1-(2-pyridin-2-yl-ethyl)-1,3-dihydro-indol-2-one]", "values": [{"measurement": "pKi", "setting": "human MR", "result": "≥ 6.30"}]}, {"smiles": "CC(=O)S[C@@H]1CC2=CC(=O)CC[C@]2(C)[C@H]2CC[C@@]3(C)[C@@H](CC[C@@]34CCC(=O)O4)[C@H]12", "note": "[spironolactone]", "values": [{"measurement": "reduced cardiac related mortality", "setting": "[1]", "result": 30, "unit": "%"}, {"measurement": "reduced frequency of hospitalization", "setting": "[1]", "result": 35, "unit": "%"}]}]}
